Experimental data reported in patent publication US4698329A, “New renin-inhibitory peptides and their use” (Sankyo Company, Limited, priority 1984, dated 1987).
Square brackets hold non-standard residues; d marks the D form. Peptide text beside a SMILES is read from it. * marks the point of attachment. 1Nal = N[C@@H](Cc1cccc2ccccc12)C(=O)O; Sta = CC(C)C[C@H](N)[C@@H](O)CC(=O)O; Cbz = O=C(OCc1ccccc1)*; NHBu = CCCCN*; NHNH2 = NN*

Biological target: T1, human renin (Homo sapiens, UniProt P00797)
T1 sequence (P00797 67-406): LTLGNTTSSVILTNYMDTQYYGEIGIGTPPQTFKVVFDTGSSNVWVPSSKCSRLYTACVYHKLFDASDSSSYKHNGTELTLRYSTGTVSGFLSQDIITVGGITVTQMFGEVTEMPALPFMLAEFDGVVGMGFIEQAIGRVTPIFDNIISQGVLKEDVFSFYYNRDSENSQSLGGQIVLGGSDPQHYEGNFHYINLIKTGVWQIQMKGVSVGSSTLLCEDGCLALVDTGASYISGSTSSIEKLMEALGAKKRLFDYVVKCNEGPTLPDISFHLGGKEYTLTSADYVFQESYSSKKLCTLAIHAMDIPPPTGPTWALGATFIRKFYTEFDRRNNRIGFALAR
Assay: Inhibition of renin activity (human renin, sheep angiotensinogen)
Format: biochemical
Conditions: concentration of test cpd. 1 × 10^-5 M, pH 7.3, 10 minutes at 37° C., mean of 3 or 4 experiments
Method: The ability of various compounds of the invention to inhibit the activity of renin was determined according to the following method, which follows essentially the procedure of Kokubu et al. [Hypertension, 5, 191-197 (1983)].
Specifically, each test compound was dissolved in 60% v/v aqueous ethanol. Human renin activity in the presence and absence of each compound was measured using sheep angiotensinogen. The total volume of 1 ml of assay mixture contained 0.1 mole/liter phosphate buffer (pH 7.3), human renin (equivalent to 0.5 ng angiotensin I per ml per minute), sheep angiotensinogen (equivalent to 200 ng angiotensin I), the indicated concentration of the test compound, 6% ethanol and angiotensinase inhibitors (10 mmole/liter sodium ethylenediaminetetraacetate and 3.4 mmole/liter 8-hydroxyquinoline). The mixture was allowed to react for 10 minutes at 37° C., and then the reaction was stopped by placing the reaction tube in a boiling water bath for 5 minutes. The mixture was then centrifuged and the supernatant (0.05-0.1 ml) was used to assay remaining angiotensin I.
An identical experiment was carried out, as a control, except that the test compound was omitted. From the values obtained were calculated the % inhibition of renin activity achieved by each test compound. The results are shown in the following Table, in which the compounds of the invention are identified by the numbers assigned to them in the foregoing list. The values given are the mean of 3 or 4 experiments.

| % Inhibition (human renin) [%] | SMILES |
| --- | --- |
| 95 | CCCCNC(=O)C[C@H](O)[C@H](CC(C)C)NC(=O)[C@H](Cc1c[nH]cn1)NC(=O)[C@H](Cc1cccc2ccccc12)NC(=O)OCc1ccccc1 [Compound 64, 4(S)-[N-benzyloxycarbonyl-3-(1-naphthyl)-L-alanyl-L-histidyl]amino-N-butyl-3(S)-hydroxy-6-methylheptanamide] (Cbz-[1Nal]-His-[Sta]-NHBu) |
| 99 | CC[C@H](C)CNC(=O)C[C@H](O)[C@H](CC(C)C)NC(=O)[C@H](Cc1c[nH]cn1)NC(=O)[C@H](Cc1cccc2ccccc12)NC(=O)OCc1ccccc1 [Compound 65, 4(S)-[N-benzyloxycarbonyl-3-(1-naphthyl)-L-alanyl-L-histidyl]amino-3(S)-hydroxy-6-methyl-N-[S-(-)-2-methylbutyl]heptanamide] |
| 98 | CC[C@H](C)[C@@H](CO)NC(=O)C[C@H](O)[C@H](CC(C)C)NC(=O)[C@H](Cc1c[nH]cn1)NC(=O)[C@H](Cc1cccc2ccccc12)NC(=O)OCc1ccccc1 [Compound 67, N-{4(S)-[N-benzyloxycarbonyl-3-(1-naphthyl)-L-alanyl-L-histidyl]amino-3(S)-hydroxy-6-methylheptanoyl}-L-isoleucinol] |
| 96 | CCNC(=O)C[C@H](O)[C@H](CC(C)C)NC(=O)[C@H](Cc1c[nH]cn1)NC(=O)[C@H](Cc1cccc2ccccc12)NC(=O)OCc1ccccc1 [Compound 66, 4(S)-[N-benzyloxycarbonyl-3-(1-naphthyl)-L-alanyl-L-histidyl]amino-N-ethyl-3(S)-hydroxy-6-methylheptanamide] (Cbz-[1Nal]-His-[Sta]-NHEt) |
| 99 | CCC(C)CNC(=O)C[C@H](O)[C@H](CC(C)C)NC(=O)[C@@H](Cc1c[nH]cn1)NC(=O)[C@H](Cc1cccc2ccccc12)NC(=O)OCc1ccccc1 (stereo partly drawn) [Compound 93, 4(S)-[N-benzyloxycarbonyl-3-(1-naphthyl)-L-alanyl-D-histidyl]amino-3(S)-hydroxy-6-methyl-N-(2-methylbutyl)heptanamide] |

More lines, now with the values behind:

| SMILES | % Inhibition (human renin) [%] |
| --- | --- |
| COC(=O)[C@@H](O)[C@H](CC(C)C)NC(=O)[C@H](Cc1c[nH]cn1)NC(=O)[C@H](Cc1cccc2ccccc12)NC(=O)OCc1ccccc1 [Compound 62, methyl 3(S)-[N-benzyloxycarbonyl-3-(1-naphthyl)-L-alanyl-L-histidyl]amino-2(S)-hydroxy-5-methylhexanoate] | 53 |
| CC(C)C[C@H](NC(=O)[C@H](Cc1c[nH]cn1)NC(=O)[C@H](Cc1cccc2ccccc12)NC(=O)OCc1ccccc1)[C@@H](O)CC(=O)N1CCC(c2ccccc2)CC1 [Compound 36, 1-{4(S)-[N-benzyloxycarbonyl-3-(1-naphthyl)-L-alanyl-L-histidyl]amino-3(S)-hydroxy-6-methylheptanoyl}-4-phenylpiperidine] | 84 |
| CC(C)C[C@H](NC(=O)[C@H](Cc1c[nH]cn1)NC(=O)[C@H](Cc1cccc2ccccc12)NC(=O)OCc1ccccc1)[C@@H](O)CC(=O)NN [Compound 38, 4(S)-[N-benzyloxycarbonyl-3-(1-naphthyl)-L-alanyl-L-histidyl]amino-3(S)-hydroxy-6-methylheptanoic acid hydrazide] (Cbz-[1Nal]-His-[Sta]-NHNH2) | 89 |
| CC(C)C[C@H](NC(=O)[C@H](Cc1c[nH]cn1)NC(=O)[C@H](Cc1cccc2ccccc12)NC(=O)OCc1ccccc1)[C@@H](O)CC(=O)O [Compound 3, 4(S)-[N-benzyloxycarbonyl-3-(1-naphthyl)-L-alanyl-L-histidyl]amino-3(S)-hydroxy-6-methylheptanoic acid] (Cbz-[1Nal]-His-[Sta]-OH) | 72 |
| CCOC(=O)C[C@H](O)[C@H](CC(C)C)NC(=O)[C@H](Cc1c[nH]cn1)NC(=O)[C@H](Cc1cccc2ccccc12)NC(=O)OCc1ccccc1 [Compound 5, ethyl 4(S)-[N-benzyloxycarbonyl-3-(1-naphthyl)-L-alanyl-L-histidyl]amino-3(S)-hydroxy-6-methylheptanoate] (Cbz-[1Nal]-His-[Sta]-OEt) | 79 |
| CC(C)C[C@H](NC(=O)[C@H](Cc1c[nH]cn1)NC(=O)[C@H](Cc1cccc2ccccc12)NC(=O)OCc1ccccc1)[C@@H](O)CC(=O)NNC(=O)CCCc1ccccc1 [Compound 39, N^1 -{4(S)-[N-benzyloxycarbonyl-3-(1-naphthyl)-L-alanyl-L-histidyl]amino-3(S)-hydroxy-6-methylheptanoyl}-N^2-(4-phenylbutyryl)hydrazine] | 84 |

Same assay, conditions: concentration of test cpd. 1 × 10^-6 M, pH 7.3, 10 minutes at 37° C., mean of 3 or 4 experiments

| % Inhibition (human renin) [%] | SMILES |
| --- | --- |
| 98.4 | CCC(C)CNC(=O)C[C@H](O)[C@H](CC(C)C)NC(=O)[C@H](CC(C)C)NC(=O)[C@H](Cc1cccc2ccccc12)NC(=O)OCc1ccccc1 (stereo partly drawn) [Compound 207, N-(2-methylbutyl)-4(S)-[N-benzyloxycarbonyl-3-(1-naphthyl)-L-alanyl-L-leucyl]amino-3(S)-hydroxy-6-methylheptanamide] |
| 99.1 | CC[C@H](C)[C@@H](CO)NC(=O)C[C@H](O)[C@H](CC(C)C)NC(=O)[C@H](CC(C)C)NC(=O)[C@H](Cc1cccc2ccccc12)NC(=O)OCc1ccccc1 [Compound 208, N-{4(S)-[N-benzyloxycarbonyl-3-(1-naphthyl)-L-alanyl-L-leucyl]amino-3(S)-hydroxy-6-methylheptanoyl}-L-isoleucinol] |
| 98.2 | CCC(C)CNC(=O)C[C@H](O)[C@H](CC(C)C)NC(=O)C(Cc1cscn1)NC(=O)[C@H](Cc1cccc2ccccc12)NC(=O)OCc1ccccc1 (mixture of isomers) [Compound 238, N-(2-methylbutyl)-4(S)-[N-benzyloxycarbonyl-3-(1-naphthyl)-L-alanyl-3-(1,3-thiazol-4-yl)-DL-alanyl]amino-3(S)-hydroxy-6-methylheptanamide] |
